This series is described as follows: FBMN analysis of short peptides in small intestine contents and serum after oral DHG. As to conditions: for Peptide signal (feature intensity) in the small intestine, 30 min / Peptide signal (feature intensity) in the small intestine, 60 min / Peptide signal (feature intensity) in the small intestine, 120 min / Peptide signal (feature intensity) in the small intestine, 240 min: small intestine contents, C57 mice, FBMN feature intensity, peptides smaller than 690 Da; for Peptide signal (feature intensity) in the small intestine, 30 min: 30 min after oral DHG; for Peptide signal (feature intensity) in the small intestine, 60 min: 60 min after oral DHG; for Peptide signal (feature intensity) in the small intestine, 120 min: 120 min after oral DHG; for Peptide signal (feature intensity) in the small intestine, 240 min: 240 min after oral DHG; for time detected in serum (FBMN): time points 0.5-4 h after oral DHG.

From publication PMC12616683, “In Vivo Atlas of Neuroprotective Cyclic Dipeptides Derived from Food Gelatin Using Peptidomics and Feature-Based Molecular Networking” (Journal of Agricultural and Food Chemistry, 2025) come the findings set out here.

Square brackets hold non-standard residues; d marks the D form. Peptide text beside a SMILES is read from it. pGlu = O=C1CC[CH](C(=O)O)N1 A value given as a limit tells only on which side of the number the result lay.

Take `CSCC[C@H](N)C(=O)N[C@@H](Cc1ccccc1)C(=O)O` [Met-Phe] (H-Met-Phe-OH): the “Peptide signal (feature intensity) in the small intestine, 30 min” value (“Peptide signal (feature intensity) … 30 min” for short) worked out at 0.00E+00; the “Peptide signal (feature intensity) in the small intestine, 60 min” value (shortened to “Peptide signal (feature intensity) … 60 min”) stood at 0.00E+00; the “Peptide signal (feature intensity) in the small intestine, 120 min” value (“Peptide signal (feature intensity) … 120 min” below) turned out to be 5.87E+05; the “Peptide signal (feature intensity) in the small intestine, 240 min” value (shortened to “Peptide signal (feature intensity) … 240 min”) amounted to 2.12E+06.

For the compound `CSCCC(N)C(=O)NC(C(=O)O)C(C)C` (stereo not drawn) [Met-Val] (H-Met-Val-OH; configuration not given here), the “Peptide signal (feature intensity) … 30 min” value is 0.00E+00; the “Peptide signal (feature intensity) … 60 min” value was found to be 0.00E+00; the “Peptide signal (feature intensity) … 120 min” value stood at 5.98E+05; the “Peptide signal (feature intensity) … 240 min” value is recorded as 1.03E+06.

As for `CSCC[C@H](N)C(=O)O` [Methionine], the “Peptide signal (feature intensity) … 30 min” value amounted to 0.00E+00; the “Peptide signal (feature intensity) … 60 min” value worked out at 0.00E+00; the “Peptide signal (feature intensity) … 120 min” value came to 1.12E+05; the “Peptide signal (feature intensity) … 240 min” value is 2.58E+05.

For `NC(=O)CC[C@H](NC(=O)[C@@H](N)Cc1ccccc1)C(=O)O` [Phe-Gln], the “Peptide signal (feature intensity) … 30 min” value is recorded as 0.00E+00; the “Peptide signal (feature intensity) … 60 min” value is 1.71E+05; the “Peptide signal (feature intensity) … 120 min” value is on record as 3.17E+05; the “Peptide signal (feature intensity) … 240 min” value amounted to 2.35E+05.

On to `N[C@@H](Cc1ccccc1)C(=O)N[C@@H](CCC(=O)O)C(=O)O` [Phe-Glu] (H-Phe-Glu-OH), for which the “Peptide signal (feature intensity) … 30 min” value was 1.31E+07; the “Peptide signal (feature intensity) … 60 min” value was 3.77E+06; the “Peptide signal (feature intensity) … 120 min” value was 0.00E+00; the “Peptide signal (feature intensity) … 240 min” value was 0.00E+00.

In the case of `CC[C@H](C)[C@H](NC(=O)[C@@H](N)Cc1ccccc1)C(=O)N[C@@H](CCCCN)C(=O)O` [Phe-Ile-Lys] (H-Phe-Ile-Lys-OH), the “Peptide signal (feature intensity) … 30 min” value is given as 0.00E+00; the “Peptide signal (feature intensity) … 60 min” value amounted to 1.05E+05; the “Peptide signal (feature intensity) … 120 min” value stood at 8.61E+05; the “Peptide signal (feature intensity) … 240 min” value stood at 7.83E+05.

Consider `CC(C)C[C@H](NC(=O)[C@@H](N)Cc1ccccc1)C(=O)N[C@@H](CCCCN)C(=O)O` [Phe-Leu-Lys] (H-Phe-Leu-Lys-OH), for which the “Peptide signal (feature intensity) … 30 min” value came to 0.00E+00; the “Peptide signal (feature intensity) … 60 min” value is recorded as 4.25E+05; the “Peptide signal (feature intensity) … 120 min” value is on record as 0.00E+00; the “Peptide signal (feature intensity) … 240 min” value is given as 8.08E+05.

`CC(C)CC(NC(=O)C(N)Cc1ccccc1)C(=O)O` (stereo not drawn) [Phe-Leu] (H-Phe-Leu-OH; configuration not given here): the “time detected in serum (FBMN)” value is at least 4 h; the “Peptide signal (feature intensity) … 30 min” value was found to be 2.64E+06; the “Peptide signal (feature intensity) … 60 min” value is reported as 2.44E+06; the “Peptide signal (feature intensity) … 120 min” value amounted to 0.00E+00. Moreover, the “Peptide signal (feature intensity) … 240 min” value is listed as 0.00E+00.

`NC(Cc1ccccc1)C(=O)N1CCCC1C(=O)O` (stereo not drawn) [Phe-Pro] (H-Phe-Pro-OH; configuration not given here): the “Peptide signal (feature intensity) … 30 min” value came to 1.25E+06; the “Peptide signal (feature intensity) … 60 min” value is on record as 7.11E+05; the “Peptide signal (feature intensity) … 120 min” value amounted to 1.63E+06; the “Peptide signal (feature intensity) … 240 min” value turned out to be 3.02E+06.

With `C[C@@H](O)[C@H](NC(=O)[C@@H](N)Cc1ccccc1)C(=O)O` [Phe-Thr], the “Peptide signal (feature intensity) … 30 min” value came to 4.05E+04; the “Peptide signal (feature intensity) … 60 min” value turned out to be 6.53E+03; the “Peptide signal (feature intensity) … 120 min” value is 0.00E+00; the “Peptide signal (feature intensity) … 240 min” value is reported as 0.00E+00.

Turning to `NC(Cc1ccccc1)C(=O)NC(Cc1ccc(O)cc1)C(=O)O` (stereo not drawn) [Phe-Tyr] (H-Phe-Tyr-OH; configuration not given here), the “Peptide signal (feature intensity) … 30 min” value is 4.42E+05; the “Peptide signal (feature intensity) … 60 min” value was determined as 1.79E+06; the “Peptide signal (feature intensity) … 120 min” value is given as 8.30E+05; the “Peptide signal (feature intensity) … 240 min” value came to 0.00E+00.

For the compound `CC(C)C(NC(=O)C(N)Cc1ccccc1)C(=O)O` (stereo not drawn) [Phe-Val] (H-Phe-Val-OH; configuration not given here), the “Peptide signal (feature intensity) … 30 min” value is 1.12E+06; the “Peptide signal (feature intensity) … 60 min” value was determined as 1.09E+06; the “Peptide signal (feature intensity) … 120 min” value is 0.00E+00; the “Peptide signal (feature intensity) … 240 min” value is listed as 0.00E+00.

Regarding `CC(C)CC(NC(=O)C1CCCN1)C(=O)O` (stereo not drawn) [Pro-Leu] (H-Pro-Leu-OH; configuration not given here), the “Peptide signal (feature intensity) … 30 min” value is 5.47E+07; the “Peptide signal (feature intensity) … 60 min” value worked out at 1.43E+07; the “Peptide signal (feature intensity) … 120 min” value is given as 0.00E+00; the “Peptide signal (feature intensity) … 240 min” value came out at 0.00E+00.

Take `O=C(O)C(Cc1ccccc1)NC(=O)C1CCCN1` (stereo not drawn) [Pro-Phe] (H-Pro-Phe-OH; configuration not given here): the “Peptide signal (feature intensity) … 30 min” value was determined as 9.57E+05; the “Peptide signal (feature intensity) … 60 min” value is 9.73E+05; the “Peptide signal (feature intensity) … 120 min” value turned out to be 1.22E+06; the “Peptide signal (feature intensity) … 240 min” value is recorded as 0.00E+00.

`CCC(C)C(NC(=O)C1CCC(=O)N1)C(=O)O` (stereo not drawn) [PyroGlu-Ile] ([pGlu]-Ile-OH; configuration not given here): the “time detected in serum (FBMN)” value is “only detected in the first hour”; the “Peptide signal (feature intensity) … 30 min” value was 7.74E+05; the “Peptide signal (feature intensity) … 60 min” value is recorded as 1.17E+06; the “Peptide signal (feature intensity) … 120 min” value worked out at 5.33E+05. In addition, the “Peptide signal (feature intensity) … 240 min” value is given as 0.00E+00.

Turning to `CSCCC(NC(=O)C1CCC(=O)N1)C(=O)O` (stereo not drawn) [PyroGlu-Met] ([pGlu]-Met-OH; configuration not given here), the “Peptide signal (feature intensity) … 30 min” value is given as 4.70E+06; the “Peptide signal (feature intensity) … 60 min” value worked out at 5.95E+06; the “Peptide signal (feature intensity) … 120 min” value was 0.00E+00; the “Peptide signal (feature intensity) … 240 min” value stood at 0.00E+00.

For `O=C1CCC(C(=O)NC(Cc2ccccc2)C(=O)O)N1` (stereo not drawn) [PyroGlu-Phe], the “time detected in serum (FBMN)” value is given as “only detected in the first hour”; the “Peptide signal (feature intensity) … 30 min” value worked out at 0.00E+00; the “Peptide signal (feature intensity) … 60 min” value worked out at 1.13E+07; the “Peptide signal (feature intensity) … 120 min” value is 0.00E+00. The “Peptide signal (feature intensity) … 240 min” value turned out to be 5.69E+06.

As for `O=C1CCC(C(=O)N2CCCC2C(=O)O)N1` (stereo not drawn) [PyroGlu-Pro] ([pGlu]-Pro-OH; configuration not given here), the “Peptide signal (feature intensity) … 30 min” value turned out to be 0.00E+00; the “Peptide signal (feature intensity) … 60 min” value was 1.75E+07; the “Peptide signal (feature intensity) … 120 min” value came to 0.00E+00; the “Peptide signal (feature intensity) … 240 min” value was found to be 1.91E+07.
